In ChEMBL document CHEMBL6109103, “Dodecapeptides derived from human cathelicidin with potent activity against carbapenem-resistant Acinetobacter baumannii” (Eur J Med Chem, 2025):
In brackets after ≈: the same amount, converted by molar mass. Positions of bridges follow the written chain, without caps; N, C: chain ends. Non-standard residues stand in square brackets, D forms with d. Residues, ends and D or L forms follow the SMILES beside them. S5 = C=CCCC[C@](C)(N)C(=O)O

How the values were obtained:
Format in all cases: functional
Acinetobacter baumannii [1] = experiment: Antibacterial activity against Acinetobacter baumannii ATCC 19606 assessed as inhibition of bacterial growth incubated for 24 hrs by broth dilution assay
Staphylococcus aureus [2] = experiment: Antibacterial activity against Methicillin-resistant Staphylococcus aureus ATCC 43300 assessed as inhibition of bacterial growth incubated for 24 hrs by broth dilution assay
Acinetobacter baumannii [3] = experiment: Antibacterial activity against multidrug-resistant Acinetobacter baumannii assessed as inhibition of bacterial growth incubated for 24 hrs by broth dilution assay
Staphylococcus aureus [4] = experiment: Antibacterial activity against Staphylococcus aureus […] assessed as inhibition of bacterial growth incubated for 24 hrs by broth dilution assay

Row | Compound | MIC (Acinetobacter baumannii [1]) | MIC (Staphylococcus aureus [2]) | MIC (Acinetobacter baumannii [3]) | MIC (Staphylococcus aureus [4])
1 | CC[C@H](C)[C@H](NC(=O)[C@H](CCCNC(=N)N)NC(=O)[C@@H](N)CCCCN)C(=O)N[C@H](C(=O)N[C@@H](CCCNC(=N)N)C(=O)N[C@@H](CCCNC(=N)N)C(=O)N[C@H](C(=O)N[C@@]1(C)CCC/C=C\CCC[C@@](C)(C(=O)O)NC(=O)[C@H](CC(C)C)NC(=O)[C@H](Cc2ccccc2)NC(=O)[C@H]([C@@H](C)CC)NC1=O)[C@@H](C)CC)C(C)C (H-KRIVRRI[S5]IFL[S5]-OH; staple (Z) 8-12) | 10 µg/mL (≈ 6.39 µM) | 40 µg/mL (≈ 25.6 µM) | 10 µg/mL (≈ 6.39 µM) | 80 µg/mL (≈ 51.1 µM)
2 | CC[C@H](C)[C@@H]1NC(=O)[C@H](CCCCN)NC(=O)[C@@](C)(NC(=O)[C@H](CCCNC(=N)N)NC(=O)[C@H](CCCNC(=N)N)NC(=O)[C@@H](NC(=O)[C@@H](NC(=O)[C@H](CCCNC(=N)N)NC(=O)[C@@H](N)CCCCN)[C@@H](C)CC)C(C)C)CCC/C=C\CCC[C@@](C)(C(=O)N[C@@H](CCCNC(=N)N)C(=O)O)NC(=O)[C@H](Cc2ccccc2)NC1=O (H-KRIVRR[S5]KIF[S5]R-OH; staple (Z) 7-11) | > 320 µg/mL | > 320 µg/mL | > 320 µg/mL | > 320 µg/mL
3 | CC[C@H](C)[C@H](NC(=O)[C@H](CCCNC(=N)N)NC(=O)[C@@H](N)CCCCN)C(=O)N[C@H](C(=O)N[C@@H](CCCNC(=N)N)C(=O)N[C@@]1(C)CCC/C=C/CCC[C@@](C)(C(=O)N[C@@H](CC(C)C)C(=O)N[C@@H](CCCNC(=N)N)C(=O)O)NC(=O)[C@H]([C@@H](C)CC)NC(=O)[C@H](CCCCN)NC(=O)[C@H]([C@@H](C)CC)NC1=O)C(C)C (H-KRIVR[S5]IKI[S5]LR-OH; staple (E) 6-10) | 10 µg/mL (≈ 6.47 µM) | 80 µg/mL (≈ 51.8 µM) | 10 µg/mL (≈ 6.47 µM) | 80 µg/mL (≈ 51.8 µM)
4 | CC[C@H](C)[C@@H]1NC(=O)[C@H](CCCCN)NC(=O)[C@H]([C@@H](C)CC)NC(=O)[C@H](CCCNC(=N)N)NC(=O)[C@@](C)(NC(=O)[C@@H](NC(=O)[C@@H](NC(=O)[C@H](CCCNC(=N)N)NC(=O)[C@@H](N)CCCCN)[C@@H](C)CC)C(C)C)CCC/C=C\CCC[C@@](C)(C(=O)O)NC(=O)[C@H](CC(C)C)NC(=O)[C@H](Cc2ccccc2)NC1=O (H-KRIV[S5]RIKIFL[S5]-OH; staple (Z) 5-12) | 80 µg/mL (≈ 52.1 µM) | 80 µg/mL (≈ 52.1 µM) | 40 µg/mL (≈ 26 µM) | > 320 µg/mL
5 | CC[C@H](C)[C@@H]1NC(=O)[C@H](CCCNC(=N)N)NC(=O)[C@@](C)(NC(=O)[C@@H](NC(=O)[C@@H](NC(=O)[C@H](CCCNC(=N)N)NC(=O)[C@@H](N)CCCCN)[C@@H](C)CC)C(C)C)CCC/C=C\CCC[C@@](C)(C(=O)N[C@@H](Cc2ccccc2)C(=O)N[C@@H](CC(C)C)C(=O)N[C@@H](CCCNC(=N)N)C(=O)O)NC(=O)[C@H](CCCCN)NC1=O (H-KRIV[S5]RIK[S5]FLR-OH; staple (Z) 5-9) | 40 µg/mL (≈ 25.3 µM) | > 320 µg/mL | 40 µg/mL (≈ 25.3 µM) | > 320 µg/mL
6 | CC[C@H](C)[C@@H]1NC(=O)[C@H](CCCNC(=N)N)NC(=O)[C@H](CCCNC(=N)N)NC(=O)[C@@](C)(NC(=O)[C@@H](NC(=O)[C@H](CCCNC(=N)N)NC(=O)[C@@H](N)CCCCN)[C@@H](C)CC)CCC/C=C\CCC[C@@](C)(C(=O)N[C@@H](CCCNC(=N)N)C(=O)O)NC(=O)[C@H](Cc2ccccc2)NC(=O)[C@H]([C@@H](C)CC)NC(=O)[C@H](CCCCN)NC1=O (H-KRI[S5]RRIKIF[S5]R-OH; staple (Z) 4-11) | > 320 µg/mL | > 320 µg/mL | > 320 µg/mL | > 320 µg/mL
7 | CC[C@H](C)[C@@H]1NC(=O)[C@H](CCCNC(=N)N)NC(=O)[C@H](CCCNC(=N)N)NC(=O)[C@H](C(C)C)NC(=O)[C@@](C)(NC(=O)[C@H](CCCNC(=N)N)NC(=O)[C@@H](N)CCCCN)CCC/C=C/CCC[C@@](C)(C(=O)N[C@@H](CC(C)C)C(=O)N[C@@H](CCCNC(=N)N)C(=O)O)NC(=O)[C@H]([C@@H](C)CC)NC(=O)[C@H](CCCCN)NC1=O (H-KR[S5]VRRIKI[S5]LR-OH; staple (E) 3-10) | 20 µg/mL (≈ 12.6 µM) | 80 µg/mL (≈ 50.4 µM) | 10 µg/mL (≈ 6.3 µM) | 80 µg/mL (≈ 50.4 µM)
8 | CC[C@H](C)[C@H](NC(=O)[C@H](CCCCN)NC(=O)[C@]1(C)CCC/C=C\CCC[C@](C)(NC(=O)[C@H](CCCNC(=N)N)NC(=O)[C@@H](N)CCCCN)C(=O)N[C@@H](C(C)C)C(=O)N[C@@H](CCCNC(=N)N)C(=O)N[C@@H](CCCNC(=N)N)C(=O)N1)C(=O)N[C@@H](Cc1ccccc1)C(=O)N[C@@H](CC(C)C)C(=O)N[C@@H](CCCNC(=N)N)C(=O)O (H-KR[S5]VRR[S5]KIFLR-OH; staple (Z) 3-7) | 320 µg/mL (≈ 197 µM) | 160 µg/mL (≈ 98.6 µM) | 40 µg/mL (≈ 24.7 µM) | 160 µg/mL (≈ 98.6 µM)
9 | CC[C@H](C)[C@@H]1NC(=O)[C@H](CCCNC(=N)N)NC(=O)[C@H](CCCNC(=N)N)NC(=O)[C@H](C(C)C)NC(=O)[C@H]([C@@H](C)CC)NC(=O)[C@@](C)(NC(=O)[C@@H](N)CCCCN)CCC/C=C\CCC[C@@](C)(C(=O)N[C@@H](Cc2ccccc2)C(=O)N[C@@H](CC(C)C)C(=O)N[C@@H](CCCNC(=N)N)C(=O)O)NC(=O)[C@H](CCCCN)NC1=O (H-K[S5]IVRRIK[S5]FLR-OH; staple (Z) 2-9) | 320 µg/mL (≈ 203 µM) | > 320 µg/mL | 160 µg/mL (≈ 101 µM) | > 320 µg/mL
10 | CC[C@H](C)[C@H](NC(=O)[C@H](CCCCN)NC(=O)[C@@H](NC(=O)[C@]1(C)CCC/C=C\CCC[C@](C)(NC(=O)[C@@H](N)CCCCN)C(=O)N[C@@H]([C@@H](C)CC)C(=O)N[C@@H](C(C)C)C(=O)N[C@@H](CCCNC(=N)N)C(=O)N1)[C@@H](C)CC)C(=O)N[C@@H](Cc1ccccc1)C(=O)N[C@@H](CC(C)C)C(=O)N[C@@H](CCCNC(=N)N)C(=O)O (H-K[S5]IVR[S5]IKIFLR-OH; staple (Z) 2-6) | 10 µg/mL (≈ 6.51 µM) | 320 µg/mL (≈ 208 µM) | 10 µg/mL (≈ 6.51 µM) | 320 µg/mL (≈ 208 µM)
11 | CC[C@H](C)[C@@H]1NC(=O)[C@H](CCCNC(=N)N)NC(=O)[C@@](C)(N)CCC/C=C\CCC[C@@](C)(C(=O)N[C@H](C(=O)N[C@@H](Cc2ccccc2)C(=O)N[C@@H](CC(C)C)C(=O)N[C@@H](CCCNC(=N)N)C(=O)O)[C@@H](C)CC)NC(=O)[C@H]([C@@H](C)CC)NC(=O)[C@H](CCCNC(=N)N)NC(=O)[C@H](CCCNC(=N)N)NC(=O)[C@H](C(C)C)NC1=O (H-[S5]RIVRRI[S5]IFLR-OH; staple (Z) 1-8) | 80 µg/mL (≈ 50.2 µM) | 160 µg/mL (≈ 100 µM) | 40 µg/mL (≈ 25.1 µM) | 320 µg/mL (≈ 201 µM)
12 | CC[C@H](C)[C@H](NC(=O)[C@H](CCCCN)NC(=O)[C@@H](NC(=O)[C@H](CCCNC(=N)N)NC(=O)[C@]1(C)CCC/C=C/CCC[C@](C)(N)C(=O)N[C@@H](CCCNC(=N)N)C(=O)N[C@@H]([C@@H](C)CC)C(=O)N[C@@H](C(C)C)C(=O)N1)[C@@H](C)CC)C(=O)N[C@@H](Cc1ccccc1)C(=O)N[C@@H](CC(C)C)C(=O)N[C@@H](CCCNC(=N)N)C(=O)O (H-[S5]RIV[S5]RIKIFLR-OH; staple (E) 1-5) | 10 µg/mL (≈ 6.39 µM) | 160 µg/mL (≈ 102 µM) | 10 µg/mL (≈ 6.39 µM) | 160 µg/mL (≈ 102 µM)
13 | CO/N=C(\C(=O)N[C@@H]1C(=O)N2C(C(=O)O)=C(COC(C)=O)CS[C@H]12)c1csc(N)n1 [CEFOTAXIME] | 20 µg/mL (≈ 43.9 µM) | > 320 µg/mL | > 320 µg/mL | 2.5 µg/mL (≈ 5.49 µM)
14 | O=C(O)c1cn(C2CC2)c2cc(N3CCNCC3)c(F)cc2c1=O [CIPROFLOXACIN] | 2.5 µg/mL (≈ 7.54 µM) | 160 µg/mL (≈ 483 µM) | 320 µg/mL (≈ 966 µM) | 2.5 µg/mL (≈ 7.54 µM)
15 | H-KRIVIRIKDFLR-OH | 160 µg/mL | > 320 µg/mL | 80 µg/mL | > 320 µg/mL
16 | H-KRIVIRIKIFLR-OH | 20 µg/mL | 80 µg/mL | 20 µg/mL | 40 µg/mL
17 | H-KRIVIRIKKFLR-OH | 80 µg/mL | 320 µg/mL | 40 µg/mL | 160 µg/mL
